The values below are quoted from earlier work in US20220160664A1, “TAZ ACTIVATORS AND WNT AGONISTS FOR TREATING EAR DISORDERS” (Frequency Therapeutics, Inc., priority 2019, published 2022).

The data set has as its target T1, KDM1b (Homo sapiens, UniProt Q8NB78).
T1 sequence (Q8NB78 1-822): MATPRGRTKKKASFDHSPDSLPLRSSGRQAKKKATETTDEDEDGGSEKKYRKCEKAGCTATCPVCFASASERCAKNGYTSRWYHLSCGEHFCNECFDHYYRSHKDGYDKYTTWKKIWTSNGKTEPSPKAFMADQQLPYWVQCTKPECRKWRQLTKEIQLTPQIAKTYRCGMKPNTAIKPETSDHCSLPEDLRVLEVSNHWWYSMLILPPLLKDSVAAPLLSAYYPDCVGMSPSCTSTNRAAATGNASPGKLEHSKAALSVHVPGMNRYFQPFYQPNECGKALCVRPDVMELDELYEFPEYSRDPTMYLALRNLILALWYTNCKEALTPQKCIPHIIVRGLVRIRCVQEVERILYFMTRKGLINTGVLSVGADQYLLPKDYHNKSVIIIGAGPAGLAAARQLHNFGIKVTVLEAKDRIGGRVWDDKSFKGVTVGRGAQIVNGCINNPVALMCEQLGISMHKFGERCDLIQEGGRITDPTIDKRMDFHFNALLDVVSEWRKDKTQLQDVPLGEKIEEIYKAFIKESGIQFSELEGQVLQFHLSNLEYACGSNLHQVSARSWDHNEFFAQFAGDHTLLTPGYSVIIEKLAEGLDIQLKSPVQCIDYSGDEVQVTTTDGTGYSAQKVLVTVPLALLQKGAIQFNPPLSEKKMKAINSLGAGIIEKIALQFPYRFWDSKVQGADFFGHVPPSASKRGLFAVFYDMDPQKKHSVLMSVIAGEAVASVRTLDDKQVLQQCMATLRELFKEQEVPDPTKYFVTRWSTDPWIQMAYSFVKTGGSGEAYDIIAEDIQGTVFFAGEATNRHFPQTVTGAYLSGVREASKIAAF
The settings on record: Table 9; read-out: Select KDM1b; cited from earlier work.

Take `O=C(O)c1ccc(CN2CCC(CN[C@@H]3C[C@H]3c3ccccc3)CC2)cc1` [GSK-2879552]: the IC50 is 20 µM.
